Experimental data published in ChEMBL document CHEMBL2029328, “Identification and structure-activity relationships of a novel series of estrogen receptor ligands based on 7-thiabicyclo[2.2.1]hept-2-ene-7-oxide” (J Med Chem, 2012).

What was measured:
Estrogen receptor beta [1] = target: T1, Estrogen receptor beta (Homo sapiens, UniProt Q92731); experiment: Agonist activity at human ERbeta expressed in HepG2 cells up to 10^-5 M after 24 hrs by luciferase reporter gene assay relative to E2; assay type: functional, cell-based
[2] = target: T2, Estrogen receptor (Homo sapiens) (UniProt P03372); experiment: Agonist activity at human ERalpha expressed in HepG2 cells up to 10^-5 M after 24 hrs by luciferase reporter gene assay relative to E2; assay type: functional, cell-based
T2 sequence (whole entry): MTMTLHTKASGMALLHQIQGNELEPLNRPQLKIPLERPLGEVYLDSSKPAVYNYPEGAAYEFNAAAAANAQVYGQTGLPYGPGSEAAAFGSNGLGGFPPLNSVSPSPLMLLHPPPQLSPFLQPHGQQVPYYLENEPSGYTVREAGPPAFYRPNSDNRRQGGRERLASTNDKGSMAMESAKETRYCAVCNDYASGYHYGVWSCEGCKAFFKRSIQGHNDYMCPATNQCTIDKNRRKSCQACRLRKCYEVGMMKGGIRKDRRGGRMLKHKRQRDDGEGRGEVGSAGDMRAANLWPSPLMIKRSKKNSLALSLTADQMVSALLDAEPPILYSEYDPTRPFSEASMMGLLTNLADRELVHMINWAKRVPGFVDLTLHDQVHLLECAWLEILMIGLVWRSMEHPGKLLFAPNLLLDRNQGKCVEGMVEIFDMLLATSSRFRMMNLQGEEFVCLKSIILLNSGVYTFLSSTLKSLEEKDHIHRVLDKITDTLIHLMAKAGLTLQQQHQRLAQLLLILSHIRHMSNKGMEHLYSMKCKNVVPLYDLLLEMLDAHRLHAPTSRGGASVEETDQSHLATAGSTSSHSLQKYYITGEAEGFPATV

Estrogen receptor beta [3] = target: T1, Estrogen receptor beta; experiment: Displacement of [3H]estradiol from human ERbeta after 18 to 24 hrs
[4] = target: T2, Estrogen receptor (Homo sapiens); experiment: Displacement of [3H]estradiol from human ERalpha after 18 to 24 hrs
Estrogen receptor = target: T3, Estrogen receptor (Homo sapiens, UniProt P03372)
T3 sequence (P03372 whole entry): T2 sequence (whole entry)
Description: Agonist activity at human ERalpha expressed in HepG2 cells after 24 hrs by luciferase reporter gene assay

Estrogen receptor beta [5] = target: T1, Estrogen receptor beta
Description: Agonist activity at human ERbeta expressed in HepG2 cells after 24 hrs by luciferase reporter gene assay

T1 sequence (Q92731 whole entry): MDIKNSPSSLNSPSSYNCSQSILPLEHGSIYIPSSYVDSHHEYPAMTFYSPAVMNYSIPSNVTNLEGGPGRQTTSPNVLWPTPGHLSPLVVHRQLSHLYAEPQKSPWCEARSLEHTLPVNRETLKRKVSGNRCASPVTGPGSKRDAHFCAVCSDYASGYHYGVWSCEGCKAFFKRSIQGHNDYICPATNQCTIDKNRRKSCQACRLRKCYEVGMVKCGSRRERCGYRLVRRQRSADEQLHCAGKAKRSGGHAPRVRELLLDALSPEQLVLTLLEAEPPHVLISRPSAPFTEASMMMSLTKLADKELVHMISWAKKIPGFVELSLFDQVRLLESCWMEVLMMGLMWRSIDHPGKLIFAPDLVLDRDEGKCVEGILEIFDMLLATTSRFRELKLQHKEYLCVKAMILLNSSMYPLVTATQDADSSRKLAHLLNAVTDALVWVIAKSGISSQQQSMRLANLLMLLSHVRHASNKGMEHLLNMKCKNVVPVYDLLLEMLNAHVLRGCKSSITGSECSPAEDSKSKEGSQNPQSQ

| Structure (SMILES) | Activity (Estrogen receptor beta [1]) | Activity [2] | RBA (Estrogen receptor beta [3]) | RBA [4] | EC50 (Estrogen receptor) | EC50 (Estrogen receptor beta [5]) |
| --- | --- | --- | --- | --- | --- | --- |
| CCOC(=O)[C@@H]1[C@H](C(=O)OCC)[C@@H]2C(c3ccc(O)c(C)c3)=C(c3ccc(O)c(C)c3)[C@H]1[S+]2[O-] (some centres undefined) | 3.6% | 22% | 0.019% | 0.026% | – | – |
| CCOC(=O)[C@@H]1[C@H](C(=O)OCC)[C@@H]2C(c3ccc(O)cc3)=C(c3ccc(O)cc3)[C@H]1[S+]2[O-] (some centres undefined) | 27% | 55% | 0.048% | 0.022% | – | – |
| O=C1[C@@H]2[C@H](C(=O)N1c1ccccc1)[C@@H]1C(c3ccc(O)cc3)=C(c3ccc(O)cc3)[C@H]2[S+]1[O-] (mixture of isomers) | 24% | 31% | 0.013% | 0.017% | 7100 nM | – |
| Cc1cc(O)ccc1C1=C(c2ccc(O)cc2C)[C@H]2[C@H]3C(=O)N(c4ccccc4)C(=O)[C@H]3[C@@H]1[S+]2[O-] (mixture of isomers) | 82% | 65% | 0.014% | 0.016% | 150 nM | 800 nM |
| Cc1cc(C2=C(c3ccc(O)c(C)c3)[C@H]3[C@H]4C(=O)N(c5ccccc5)C(=O)[C@H]4[C@@H]2[S+]3[O-])ccc1O (mixture of isomers) | 3.4% | 29% | 0.007% | 0.009% | – | – |
| Cc1cc(C2=C(c3ccc(O)c(C)c3)[C@H]3[C@@H](S(=O)(=O)Oc4cccc5ccccc45)C[C@@H]2[S+]3[O-])ccc1O (relative stereo) | 10% | 42% | 0.019% | 0.236% | 770 nM | – |
| O=S(=O)(Oc1ccccc1)[C@H]1C[C@H]2C(c3ccc(O)cc3)=C(c3ccc(O)cc3)[C@@H]1[S+]2[O-] (relative stereo) | 3.4% | 85% | 0.11% | 0.956% | 670 nM | – |
| O=S(=O)(Oc1ccc(O)cc1)[C@H]1C[C@H]2C(c3ccc(O)cc3)=C(c3ccc(O)cc3)[C@@H]1[S+]2[O-] (relative stereo) | 10% | 48% | 0.071% | 0.077% | 1100 nM | – |
| Cc1cc(O)ccc1C1=C(c2ccc(O)cc2C)[C@H]2[C@@H](S(=O)(=O)Oc3ccccc3)C[C@@H]1[S+]2[O-] (relative stereo) | 66% | 62% | 0.348% | 8.11% | 0.14 nM | – |
| COc1ccc(OS(=O)(=O)[C@H]2C[C@H]3C(c4ccc(O)cc4C)=C(c4ccc(O)cc4C)[C@@H]2[S+]3[O-])cc1 (relative stereo) | 32% | 76% | 0.091% | 0.741% | 210 nM | – |
| Cc1cc(O)ccc1C1=C(c2ccc(O)cc2C)[C@H]2[C@@H](S(=O)(=O)Oc3ccccc3F)C[C@@H]1[S+]2[O-] (relative stereo) | 54% | 56% | 0.138% | 3.53% | 2.2 nM | – |
| Cc1cc(O)ccc1C1=C(c2ccc(O)cc2C)[C@H]2[C@@H](S(=O)(=O)Oc3ccccc3Cl)C[C@@H]1[S+]2[O-] (relative stereo) | 46% | 73% | 0.227% | 2.49% | 2.8 nM | – |
| Cc1cc(O)ccc1C1=C(c2ccc(O)cc2C)[C@H]2[C@@H](S(=O)(=O)Oc3ccccc3Br)C[C@@H]1[S+]2[O-] (relative stereo) | 21% | 67% | 0.07% | 2.21% | 14 nM | – |
| Cc1cc(O)ccc1C1=C(c2ccc(O)cc2C)[C@H]2[C@@H](S(=O)(=O)Oc3ccc(F)cc3)C[C@@H]1[S+]2[O-] (relative stereo) | 45% | 74% | 0.08% | 2.18% | 200 nM | – |
| Cc1cc(O)ccc1C1=C(c2ccc(O)cc2C)[C@H]2[C@@H](S(=O)(=O)Oc3ccc(Cl)cc3)C[C@@H]1[S+]2[O-] (relative stereo) | 50% | 67% | 0.083% | 2.13% | 110 nM | – |
| Cc1cc(O)ccc1C1=C(c2ccc(O)cc2C)[C@H]2[C@@H](S(=O)(=O)Oc3ccc(Br)cc3)C[C@@H]1[S+]2[O-] (relative stereo) | 100% | 71% | 0.297% | 3.37% | 110 nM | – |
| Cc1cc(O)ccc1C1=C(c2ccc(O)cc2C)[C@H]2[C@@H](S(=O)(=O)Oc3cccc4ccccc34)C[C@@H]1[S+]2[O-] (relative stereo) | 83% | 59% | 0.18% | 0.998% | 27 nM | – |
| Cc1cc(O)ccc1C1=C(c2ccc(O)cc2C)[C@H]2[C@@H](S(=O)(=O)Oc3ccc(O)cc3)C[C@@H]1[S+]2[O-] (relative stereo) | 82% | 58% | 0.812% | 2.21% | 9.2 nM | – |
| Cc1cc(C2=C(c3ccc(O)c(C)c3)[C@H]3[C@@H](S(=O)(=O)Oc4ccccc4)C[C@@H]2[S+]3[O-])ccc1O (relative stereo) | 3.8% | 65% | 0.014% | 3.49% | 12 nM | – |
| COc1ccc(OS(=O)(=O)[C@H]2C[C@H]3C(c4ccc(O)c(C)c4)=C(c4ccc(O)c(C)c4)[C@@H]2[S+]3[O-])cc1 (relative stereo) | 9.8% | 57% | 0.021% | 0.31% | 11000 nM | – |
| Cc1cc(C2=C(c3ccc(O)c(C)c3)[C@H]3[C@@H](S(=O)(=O)Oc4ccccc4F)C[C@@H]2[S+]3[O-])ccc1O (relative stereo) | 0% | 55% | 0.01% | – | 1300 nM | – |
| Cc1cc(C2=C(c3ccc(O)c(C)c3)[C@H]3[C@@H](S(=O)(=O)Oc4ccccc4Cl)C[C@@H]2[S+]3[O-])ccc1O (relative stereo) | 0% | 72% | 0.022% | 1.18% | 2000 nM | – |
| Cc1cc(C2=C(c3ccc(O)c(C)c3)[C@H]3[C@@H](S(=O)(=O)Oc4ccccc4Br)C[C@@H]2[S+]3[O-])ccc1O (relative stereo) | 0% | 51% | 0.014% | 0.516% | 1200 nM | – |
| Cc1ccc(C2=C(c3ccc(C)cc3)[C@H]3[C@@H](S(=O)(=O)Oc4ccc(O)cc4)C[C@@H]2[S+]3[O-])cc1 (relative stereo) | 10% | 24% | 0.011% | 0.005% | 5500 nM | – |
| COc1ccc(OS(=O)(=O)[C@H]2C[C@H]3C(c4ccc(O)cc4)=C(c4ccc(O)cc4)[C@@H]2[S+]3[O-])cc1 (relative stereo) | 19% | 48% | 0.08% | 0.074% | – | – |
| Cc1cc(C2=C(c3ccc(O)c(C)c3)[C@H]3[C@@H](S(=O)(=O)Oc4ccc(O)cc4)C[C@@H]2[S+]3[O-])ccc1O (relative stereo) | – | – | 0.009% | 0.109% | – | – |
| Cc1cc(O)ccc1C1=C(c2ccc(O)cc2C)[C@H]2[C@@H](S(=O)(=O)Oc3cccc(Cl)c3)C[C@@H]1[S+]2[O-] (relative stereo) | – | – | 0.088% | 1.3% | – | – |
| O=S(=O)(Oc1ccc(O)cc1)[C@H]1C[C@H]2C(c3ccccc3)=C(c3ccccc3)[C@@H]1[S+]2[O-] (relative stereo) | 0% | 22% | 0.008% | 0.005% | – | – |
